Data published in US9713613B2, “Methods and compositions for the treatment of cancer and related hyperproliferative disorders” (priority 2007, dated 2017).

Assays:
[1] = target: T1, SCAP (Cricetulus griseus, UniProt P97260); test: Binding assay, biotinylated fatostatin on Neutravidine-agarose beads, CHO-K1 membrane extract; design: species or system Chinese hamster; settings: not bound: SREBP-1, SREBP-2, ATF6
T1 construct: endogenous in cells; host or cells: CHO-K1 (membrane fraction extracted with 0.1% FOS-Choline 10)
T1 sequence (P97260 1-1276): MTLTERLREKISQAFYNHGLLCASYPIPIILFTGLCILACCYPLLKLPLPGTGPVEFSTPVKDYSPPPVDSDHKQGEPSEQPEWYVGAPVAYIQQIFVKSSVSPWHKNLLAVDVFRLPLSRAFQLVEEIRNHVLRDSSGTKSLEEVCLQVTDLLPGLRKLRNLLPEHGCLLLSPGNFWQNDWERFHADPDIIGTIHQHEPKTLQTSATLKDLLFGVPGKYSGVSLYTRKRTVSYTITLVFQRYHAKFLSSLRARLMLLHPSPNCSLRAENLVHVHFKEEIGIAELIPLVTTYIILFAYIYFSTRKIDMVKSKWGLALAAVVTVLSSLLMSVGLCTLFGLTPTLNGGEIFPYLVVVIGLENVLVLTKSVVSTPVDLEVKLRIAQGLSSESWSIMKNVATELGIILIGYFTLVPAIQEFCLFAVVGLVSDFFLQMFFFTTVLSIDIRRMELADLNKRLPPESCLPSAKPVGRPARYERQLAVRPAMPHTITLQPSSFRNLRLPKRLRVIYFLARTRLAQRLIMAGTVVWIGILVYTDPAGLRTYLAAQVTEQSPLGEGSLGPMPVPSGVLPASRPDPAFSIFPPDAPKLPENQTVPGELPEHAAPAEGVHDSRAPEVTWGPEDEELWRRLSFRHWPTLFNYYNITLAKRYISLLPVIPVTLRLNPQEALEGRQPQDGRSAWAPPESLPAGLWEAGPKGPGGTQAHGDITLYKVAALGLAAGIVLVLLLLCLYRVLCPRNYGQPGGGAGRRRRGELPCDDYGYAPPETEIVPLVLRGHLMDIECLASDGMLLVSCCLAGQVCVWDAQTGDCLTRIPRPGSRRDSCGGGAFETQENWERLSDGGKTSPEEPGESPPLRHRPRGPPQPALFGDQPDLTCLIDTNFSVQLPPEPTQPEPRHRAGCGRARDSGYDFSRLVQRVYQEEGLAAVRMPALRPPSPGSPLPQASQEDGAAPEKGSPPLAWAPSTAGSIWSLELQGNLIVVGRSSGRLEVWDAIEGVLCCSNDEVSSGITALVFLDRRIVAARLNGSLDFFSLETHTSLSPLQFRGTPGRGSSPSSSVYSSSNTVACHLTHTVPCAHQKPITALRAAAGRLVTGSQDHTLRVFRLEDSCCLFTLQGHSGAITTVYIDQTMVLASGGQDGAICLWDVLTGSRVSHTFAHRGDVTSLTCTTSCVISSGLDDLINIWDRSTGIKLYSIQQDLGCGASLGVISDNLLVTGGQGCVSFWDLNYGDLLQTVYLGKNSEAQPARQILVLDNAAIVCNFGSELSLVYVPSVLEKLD
Text: The selective ER localization implies that fatostatin binds to a protein in the ER; the most likely candidate is SCAP, the target of cholesterol for the control of SREBP (Radhakrishnan et al., 2004). To test this hypothesis, proteins bound to a fatostatin-polyproline linker-biotin conjugate (FIG. 20A) (Sato et al., 2007) were purified from cell lysates and analyzed by western blots with antibodies against SCAP, SREBP-1, SREBP-2, and ATF6, an unrelated ER-bound transcription factor (Ye et al., 2000). […] The binding was lost upon addition of excess fatostatin, but not excess cholesterol (FIG. 20D), raising the possibility that fatostatin may interact with SCAP in a site distinct from that of cholesterol.
Binding assay. Cell membrane fractions were prepared as described in Supplementary Methods. The membrane fraction was extracted with PBS containing 0.1% FOS-Choline 10 (Hampton Research). The extract was mixed with Neutravidine-agarose beads (10 μL) saturated with biotinylated fatostatin and incubated for 1 h. The bound proteins were washed four times with PBS containing 0.1% FOS-Choline 10, boiled in 25 μL of SDS sample buffer, and subjected to western blotting. For the competition assay, saturated amounts of cholesterol or fatostatin were added to the membrane extract before incubating with the beads.

[2] = tested on: HePG2 cells; test: HePG2 cell growth, SREBP-1 western blot; format: cell-based, human
Method: Cells were seeded onto 16 well plates at a density of 100000 cells/well in medium containing 2% charcoal stripped serum. After 24 hours, compound 19 was added to the cells at the indicated concentrations for another 48 hours. […] Values are depicted as means±SD; *P<0.05.

[3] = tested on: RPMI8226 cells; test: RPMI8226 cell growth, MTT assay; format: cell-based, human; settings: 5 μM, 48 hours
Method: 10,000 MOLT-4 cells (FIGS. 35A-35C) and 20,000 RPM18226 cells (FIGS. 35D-35F) were seeded onto 96 well plate in RPMI 1640 medium containing 5% FBS or fat-free charcoal treated serum (FF-FBS) for 24 hours at 37 C. MOLT-4 and RPM18226 cells were treated for additional 48 hours with different concentrations of compound 19 (None control without DMSO, Vehicle with DMSO, 1, 2, 5, 10 and 20 μM in DMSO; RPM18226 cells also were treated with 3 μM in DMSO). At the end of 48 hours cells were subjected to MTT assay to determine viability. Values are depicted as means±SD; *P<0.05.
20,000 MOLT-4 cells (FIGS. 36A-36C) and 20,000 RPM18226 cells (FIGS. 36D-36F) cells were seeded onto 96 well plates in RPMI 1640 Medium containing 5% Fetal bovine serum (FBS) or 5% fat free charcoal treated serum (FF-FBS) for 24 hours at 37 C. Cells then were treated for additional 48 hours with different concentrations of compound 17 (None control without DMSO, Vehicle with DMSO, 1, 2, 3, 5, 10 and 20 μM in DMSO). At the end of the 48 hours treatment cells were subjected to MTT assay to determine viability. Values are depicted as means±SD (n=3); **P<0.001; ***P<0.0001.
RPM18226 cells were grown under the same conditions as the MOLT-4 cells. 20,000 cells were seeded into 96 well plates for 24 hrs prior to treatment with increasing concentrations of compound 19 as described for MOLT-4 cells. […]

With `CCCc1cc(-c2nc(-c3ccc(C)cc3)cs2)ccn1` [Compound 1, 2-propyl-4-(4-p-tolylthiazol-2-yl)pyridine] the “binding to SCAP (western blot of bound proteins)” value [1] was “bound to SCAP”.

`CCCc1cc(-c2nc(-c3ccc(NS(C)(=O)=O)cc3)cs2)ccn1` [Compound 19, N-(4-(2-(2-propylpyridin-4-yl)thiazol-4-yl)phenyl)methanesulfonamide] was tested, and the “level of mature and precursor forms of SREBP-1 (western blot)” value ([2]; 25 μM, HePG2 cells) was “significant decrease in the level of the mature and active form”, the “toxicity, morphology and growth of treated cells” value ([2]; 25, 50 and 100 μM, 48 hours) was “high level of toxicity” and the “growth inhibition in 5% FF FBS relative to 5% FBS” value [3] was “about 1.5”.
